{"source": "paper PMC11435065", "about": "“Inhibition of P-Glycoprotein Asymmetrically Alters the In Vivo Exposure Profile of SGC003F: A Novel Guanylate Cyclase Stimulator” (Pharmaceuticals, 2024)", "test": "Tissue distribution of SGC003F in rats with or without tariquidar", "type": "in vivo", "conditions": "rat; for AUC(0-t) / Kp: male; for AUC(0-t): SD; for Kp: Sprague-Dawley", "protocol": "A total of 45 male SD rats were randomly divided into 15 groups, with 3 rats in each group; each set of 5 groups constituted a larger group. The first large group served as the control group: SGC003F (p.o., 1 mg/kg) + blank solvent; the second large group was designated as experimental Group I: SGC003F (p.o., 1 mg/kg) + tariquidar (i.v., 7.5 mg/kg); the third group was labeled as Group II: SGC003F (p.o., 1 mg/kg) + tariquidar (p.o., 15 mg/kg). The rats in each group were euthanized at 0.5 h, 1 h, 2 h, 4 h, and 24 h after administration. Blood samples were collected by cardiac puncture and placed in heparin tubes. The plasma was harvested by centrifugation at 2500× g for 10 min at 4 °C. Major organs (brain, heart, liver, kidney, and small intestine) were collected and homogenized with saline at a ratio of 1:4 (w/v). All samples were stored at −40 °C for further analysis.\nThe tissue plasma partition coefficient at individual time point (KP1) was calculated by the ratio of the tissue concentration to the plasma concentration at each time point, as described in Equation (3) KP1 = Ctissue/Cplasma(3)\nThe overall tissue plasma partition coefficient (KP2) was calculated by the ratio of the area under the tissue drug-time curve to the area under the plasma drug–time curve, as described in Equation (4) KP2 = AUC(0-t, tissue)/AUC(0-t, plasma)(4)", "key": {"[1]": {"conditions": "SGC003F p.o. 1 mg/kg, tariquidar i.v. 7.5 mg/kg"}, "[2]": {"conditions": "SGC003F p.o. 1 mg/kg, tariquidar p.o. 15 mg/kg"}}, "note": "Where two headings read alike, the source gives them in different places.", "data": [{"smiles": "COC(=O)Nc1c(N)nc(-c2nn(Cc3sccc3F)c3ncc(F)cc23)nc1N", "note": "[SGC003F]", "values": [{"measurement": "AUC(0-t)", "setting": "plasma, po, 1 mg/kg, SGC003F p.o. 1 mg/kg, with tariquidar i.v. 7.5 mg/kg, read-out: AUC(0–24h), Plasma", "result": "7540 ± 1280", "unit": "ng·h/mL"}, {"measurement": "AUC(0-t)", "setting": "plasma, po, 1 mg/kg, SGC003F p.o. 1 mg/kg, with tariquidar p.o. 15 mg/kg, read-out: AUC(0–24h), Plasma", "result": 10200, "unit": "ng·h/mL"}, {"measurement": "AUC(0-t)", "setting": "small intestine, po, 1 mg/kg, SGC003F p.o. 1 mg/kg, single, read-out: AUC(0–24h), Intestine", "result": "2530 ± 988", "unit": "ng·h/mL"}, {"measurement": "AUC(0-t)", "setting": "small intestine, po, 1 mg/kg, SGC003F p.o. 1 mg/kg, with tariquidar i.v. 7.5 mg/kg, read-out: AUC(0–24h), Intestine", "result": "5630 ± 1360", "unit": "ng·h/mL"}, {"measurement": "AUC(0-t)", "setting": "small intestine, po, 1 mg/kg, SGC003F p.o. 1 mg/kg, with tariquidar p.o. 15 mg/kg, read-out: AUC(0–24h), Intestine", "result": 10400, "unit": "ng·h/mL"}, {"measurement": "Kp", "setting": "brain, po, 1 mg/kg, SGC003F p.o. 1 mg/kg, single, read-out: KP2 (tissue/plasma AUC), Brain", "result": 0.002}, {"measurement": "Kp", "setting": "kidney, oral, SGC003F p.o. 1 mg/kg, with tariquidar i.v. 7.5 mg/kg, read-out: KP2, Kidney", "result": "1.05 ± 0.14"}, {"measurement": "Kp", "setting": "kidney, oral, SGC003F p.o. 1 mg/kg, with tariquidar p.o. 15 mg/kg, read-out: KP2, Kidney", "result": "1.16 ± 0.26"}, {"measurement": "Kp", "setting": "kidney, po, 1 mg/kg, SGC003F p.o. 1 mg/kg, single, read-out: KP2 (tissue/plasma AUC), Kidney", "result": "1.11 ± 0.24"}, {"measurement": "Kp", "setting": "liver, oral, SGC003F p.o. 1 mg/kg, with tariquidar i.v. 7.5 mg/kg, read-out: KP2, Liver", "result": "0.86 ± 0.11"}, {"measurement": "Kp", "setting": "liver, oral, SGC003F p.o. 1 mg/kg, with tariquidar p.o. 15 mg/kg, read-out: KP2, Liver", "result": "0.95 ± 0.07"}, {"measurement": "Kp", "setting": "liver, po, 1 mg/kg, SGC003F p.o. 1 mg/kg, single, read-out: KP2 (tissue/plasma AUC), Liver", "result": "0.91 ± 0.09"}, {"measurement": "Kp", "setting": "small intestine, oral, SGC003F p.o. 1 mg/kg, with tariquidar i.v. 7.5 mg/kg, read-out: KP2, Intestine", "result": "0.74 ± 0.06"}, {"measurement": "Kp", "setting": "small intestine, oral, SGC003F p.o. 1 mg/kg, with tariquidar p.o. 15 mg/kg, read-out: KP2, Intestine", "result": "1.01 ± 0.19"}, {"measurement": "Kp", "setting": "small intestine, po, 1 mg/kg, SGC003F p.o. 1 mg/kg, single, read-out: KP2 (tissue/plasma AUC), Intestine", "result": "0.47 ± 0.11"}, {"measurement": "Brain-to-plasma concentration ratio relative to control group", "setting": "4 h, SGC003F p.o. 1 mg/kg with tariquidar (oral or i.v.)", "result": "twice"}, {"measurement": "Increase of SGC003F concentration in the brain versus SGC003F alone", "setting": "4 h, SGC003F p.o. 1 mg/kg, tariquidar intravenously 7.5 mg/kg", "result": 3.2, "unit": "fold"}, {"measurement": "Increase of SGC003F concentration in the brain versus SGC003F alone", "setting": "4 h, SGC003F p.o. 1 mg/kg, tariquidar orally 15 mg/kg", "result": 4.2, "unit": "fold"}, {"measurement": "Concentration of SGC003F in the brain", "setting": "24 h, all groups (alone or with tariquidar)", "result": "below the limit of quantification"}, {"measurement": "AUC(0–24h), Brain, Ratio 1 (with Tar (i.v.)/single)", "setting": "[1]", "result": 2.4}, {"measurement": "AUC(0–24h), Heart, Ratio 1 (with Tar (i.v.)/single)", "setting": "[1]", "result": "~1.3"}, {"measurement": "AUC(0–24h), Intestine, Ratio 1 (with Tar (i.v.)/single)", "setting": "[1]", "result": 2.2}, {"measurement": "AUC(0–24h), Kidney, Ratio 1 (with Tar (i.v.)/single)", "setting": "[1]", "result": "~1.3"}, {"measurement": "AUC(0–24h), Liver, Ratio 1 (with Tar (i.v.)/single)", "setting": "[1]", "result": "~1.3"}, {"measurement": "AUC(0–24h), Plasma, Ratio 1 (with Tar (i.v.)/single)", "setting": "[1]", "result": 1.4}, {"measurement": "KP2, Brain, Ratio 1 (with Tar (i.v.)/single)", "setting": "[1]", "result": 2.0}, {"measurement": "KP2, Intestine, Ratio 1 (with Tar (i.v.)/single)", "setting": "[1]", "result": 1.6}, {"measurement": "AUC(0–24h), Heart, Ratio 2 (with Tar (p.o.)/single)", "setting": "[2]", "result": 2.0}, {"measurement": "AUC(0–24h), Kidney, Ratio 2 (with Tar (p.o.)/single)", "setting": "[2]", "result": 2.0}, {"measurement": "AUC(0–24h), Liver, Ratio 2 (with Tar (p.o.)/single)", "setting": "[2]", "result": 2.0}, {"measurement": "AUC(0–24h), Plasma, Ratio 2 (with Tar (p.o.)/single)", "setting": "[2]", "result": 2.0}, {"measurement": "KP2, Brain, Ratio 2 (with Tar (p.o.)/single)", "setting": "[2]", "result": 2.0}, {"measurement": "KP2, Heart, Ratio 2 (with Tar (p.o.)/single)", "setting": "[2]", "result": 1.0}, {"measurement": "KP2, Intestine, Ratio 2 (with Tar (p.o.)/single)", "setting": "[2]", "result": 2.1}, {"measurement": "KP2, Kidney, Ratio 2 (with Tar (p.o.)/single)", "setting": "[2]", "result": 1.0}, {"measurement": "KP2, Liver, Ratio 2 (with Tar (p.o.)/single)", "setting": "[2]", "result": 1.0}]}]}
